Measurements published in patent US20240124539A1, “CROSSLINKED HELIX DIMER MIMICS OF SOS AND METHODS OF USING SAME” (NEW YORK UNIVERSITY, priority 2020, published 2024).
Positions of bridges follow the written chain, without caps; N, C: chain ends. Non-standard residues stand in square brackets, D forms with d. Residues, ends and D or L forms follow the SMILES beside them. Chains are numbered I, II in the order given. No end group written: not given here. dibenzylether crosslinker = scaffold alkylating both cysteine thiols (drawn in Scheme 1 and; hArg = N=C(N)NCCCC[C@H](N)C(=O)O; DZ = diazirine photocrosslinker

Columns and labels:
[1] = target: T1, wild-type His6-tagged H-Ras (1-166) pre-loaded with GDP (Homo sapiens, UniProt P01112); test: Fluorescence polarization binding assay, wild-type H-Ras-GDP
T1 construct: wild-type and mutant His6-tagged H-Ras (1-166) pre-loaded with GDP; made in house; host or cells: Escherichia coli (BL21)
Text: GTP of the Ras-specific nucleotide exchange factor SOS. Cell 112, 685-695 (2003).

H358 cells = test: Photoaffinity labeling with quantitative MS-based proteomics in H358 cells; assay type: cell-based, Homo sapiens; settings: TMT abundance, negative control diazirine probe
Method: H358 cells were grown to 80-95% confluence in 10 cm plates with FBS-supplemented RPMI-1640. The growth medium was aspirated and the cells were washed with Dulbecco's phosphate-buffered saline (DPBS). The cells were then incubated with serum-free medium containing probes DZ2-CHC^Sos-5 (20 μM in RPMI-1640 with 0.4% DMSO, two replicates) or control probe CP-2-66 (20 μM in RPMI-1640 with 0.4% DMSO, four replicates) for 4 hours at 37° C. under an atmosphere of 5% CO2 before being irradiated under UV light (365 nm, 30 min, 4° C.). The cells were washed with DPBS, scraped and transferred to 1.5 mL Eppendorf tubes, pelleted, and stored at −80° C. until the next step.
Cell pellets were resuspended in 500 μL of DPBS and lysed by sonication (15 ms on, 40 ms off, 15% amplitude, 1 s total on×2). Protein concentrations were normalized (1-2 mg/mL; final volume of 500 μL with DPBS) using the Lowry Protein Assay (Pierce). To each sample was added solutions of tris((1-benzyl-4-triazolyl)methyl)amine (30 μl, 1.7 mM in DMSO/t-BuOH 1:4 v/v), tris(2-carboxyethyl)phosphine (10 μL, 50 mM), biotin-PEG3-azide (5 μL, 100 μM), and CuSO4 (10 μL, 50 mM) and the samples were shaken at room temperature for 1 hour. A cold MeOH/CHCI3 mixture (2.5 mL, 4:1 v/v) was added to each lysate, followed by 1 mL of cold DPBS. The resulting mixture was vortexed and centrifuged (4,700× g, 10 min, 4° C.). The organic and aqueous layers were aspirated, and the remaining protein disk was further washed via sonication in cold MeOH/CHCl3 solution (2 mL, 4:1) and pelleted by centrifugation (4,700× g, 10 min, 4° C.). The protein pellet was aspirated and combined with freshly prepared urea solution (500 μL, 6 M in DPBS) and a solution of SDS (with 10 μL of 10% w/v) by sonication. A freshly prepared 1:1 solution (50 μL) of TCEP (200 mM in DPBS) and K2CO3 (600 mM in DPBS) was added and the mixture was incubated for 30 min at 37° C. with shaking. A solution of freshly prepared iodoacetamide (70 μL, 400 mM in DPBS) was added and the mixture was incubated at RT in the absence of light. Each sample was combined with a solution of SDS (130 μL, 10% in DPBS w/v) followed by DPBS (5.5 mL) and incubated with pre-equilibrated streptavidin-agarose beads (100 μL of a 50% slurry; Pierce) for 1.5 hours at RT while rotating. The streptavidin beads were pelleted by centrifugation (750 g, 2 min, 4° C.) and sequentially washed with SDS solution (1×5 mL, 0.2% in DPBS), DPBS (2×5 mL), and triethylammonium bicarbonate buffer (1×5 mL, TEAB, 100 mM, pH 8.4). The beads were resuspended in TEAB (0.5 mL, 100 mM pH 8.5) and transferred into LoBind microcentrifuge tubes. The tube was washed once more with TEAB (0.5 mL, 100 mM pH 8.5) to ensure complete transfer of the beads, which were then pelleted by centrifugation (750× g, 2 min, 4° C. and the supernatant aspirated. Each sample of beads was combined with a solution of CaCl2 (2 μL, 100 mM) and a solution of sequencing-grade porcine trypsin (2 μg, Promega in 200 μL TEAB, 100 mM, pH 8.4), and incubated for 14 hours at 37° C.with shaking. The beads were pelleted by centrifugation (750× g, 2 min, 4° C.) and the supernatants were transferred to new
LoBind micro-centrifuge tubes. Each digested sample was TMT 10plex labeled (Thermo Fisher Scientific): for each sample a stock solution of TMT reagent (8 μL, 20 μg/μL) was added along with dry MS-grade acetonitrile (final acetonitrile concentration 30% v/v), followed by incubation at RT for 1 hour. The reaction was quenched by adding hydroxylamine (6 μL) and left to stand for 15 min, followed by the addition of formic acid (5 μL). Each TMT-labeled sample was dried via vacuum centrifugation, and the samples were combined by redissolving one sample in a solution of trifluoroacetic acid (TFA, 200 μL, 0.1% in water) and transferring the solution into each sample tube until all samples were redissolved. […]

H-Ras = target: T2, H-Ras (Homo sapiens, UniProt P01112); test: Photoaffinity labeling of purified H-Ras and tryptic digest MS; assay type: binding; settings: 5 eq. probe, UV light, trypsin digest
T2 construct: Wild-type and mutant N-terminal His6-H-Ras (residues 1-166) in pProEx HTb expression vector; His6 (N, cleaved yes); made in house; host or cells: Escherichia coli (BL21)
Method: For each experiment, a sample of 250 μM diazirine-labeled CHD peptide was
Incubated samples were then photo-irradiated for 5 minutes at 24 °C. Photo-conjugated samples were then mixed with 1× SDS-PAGE loading buffer containing 5% 2-mercaptoethanol (200 μL final volume) and heated at 95° C. for 5 minutes. Heated samples were then separated via SDS-PAGE gel electrophoresis on a 1.0 mm 15% polyacrylamide gel. The resulting gel was stained with Coomassie Brilliant Dye and subsequently destained (40% MeOH/10% acetic acid/50% water).
In-gel tryptic digest was conducted with the In-Gel tryptic Digestion Kit (Thermo Scientific) according the manufacturer's instructions. Upon photoaffinity labeling, the conjugated band was isolated as a 1×1 mm segment for in-gel trypsin digest. The isolated gel band was then incubated with 200 μL of Coomassie destaining solution (25 mM ammonium bicarbonate in 1:1 ultrapure water:acetonitrile) for 30 minutes at 37 °C. After incubation, destaining buffer was removed, and the destaining step was repeated twice more. The destained gel band was treated with reducing buffer (25 mM of ammonium bicarbonate, 50 mM TCEP) for 10 minutes at 60° C. After discarding the reducing buffer, the band was treated with 200 μL of iodoacetamide alkylation solution (25 mM ammonium bicarbonate, 100 mM iodoacetamide) for 30 minutes at 37° C. while shaking in the dark. […]

## CC[C@H](C)[C@H](NC(=O)[C@H](Cc1ccccc1)NC(C)=O)C(=O)NCC(=O)N[C@@H](CCCNC(=N)N)C(=O)N[C@@H](CC(C)C)C(=O)N[C@@H](CSCc1ccc(COCc2ccc(CSC[C@H](NC(=O)[C@H](CC(C)C)NC(=O)[C@H](CCCNC(=N)N)NC(=O)[C@H](C)NC(=O)[C@H](CC(C)C)NC(=O)[C@H](CCC(=O)O)NC(=O)[C@H](CCCNC(=N)N)NC(=O)[C@H](CCC(=O)O)NC(=O)[C@H](CC(C)C)NC(=O)[C@H](CCC(=O)O)NC(=O)[C@H](CCCNC(=N)N)NC(=O)[C@H](CC(C)C)NC(=O)[C@H](CCCNC(=N)N)NC(=O)[C@H](Cc3c[nH]c4ccccc34)NC(=O)[C@H](C)NC(=O)[C@H](CC(C)C)NC(C)=O)C(N)=O)cc2)cc1)C(=O)N[C@H](C(=O)N[C@@H](CC(N)=O)C(=O)N[C@H](C(=O)N[C@@H](CC(C)C)C(=O)N[C@@H](CCCCN)C(=O)N[C@@H](CC(C)C)C(=O)N[C@@H](CCCNC(=N)N)C(=O)N[C@@H](CCC(=O)O)C(=O)NCC(=O)N[C@@H](CC(N)=O)C(N)=O)[C@@H](C)CC)[C@@H](C)O [CHC^Sos-1] (HELM PEPTIDE1{[ac].F.I.G.R.L.C.T.N.I.L.K.L.R.E.G.N.[am]}|PEPTIDE2{[ac].L.A.W.R.L.R.E.L.E.R.E.L.A.R.L.C.[am]}|CHEM1{[c1cc(C[*:1])ccc1COCc1ccc(C[*:2])cc1]}$PEPTIDE1,CHEM1,7:R3-1:R1|PEPTIDE2,CHEM1,17:R3-1:R2$$$V2.0)
[1]
  Kd: 32 ± 6 µM

## C#CCCC1(CCC(=O)NC)N=N1 [CP-266]
H358 cells; enriched protein AHSA1 (O95433)
  Average Abundance CP-266: 157
H358 cells; enriched protein EEF1D (P29692)
  Average Abundance CP-266: 614
H358 cells; enriched protein HNRNPR (O43390)
  Average Abundance CP-266: 1745
H358 cells; enriched protein PMVK (Q15126)
  Average Abundance CP-266: 177
H358 cells; enriched protein PPP4C (P60510)
  Average Abundance CP-266: 60
H358 cells; enriched protein STK26 (Q9P289)
  Average Abundance CP-266: 170

## DZ1-CHC^Sos-5: CHD^Sos-5 with diazirine photocrosslinker at N-terminus of αI helix: DZ-GLAWRLRELERELARLC-NH2 (chain 1 WIGRLCTEI[hArg]RLRNGN; chain 2 {DZ}-GLAWRLRELERELARLC-NH2; linker I:6-II:17 via dibenzylether crosslinker)
H-Ras
  Ras binding site by photo-crosslinking: photo-crosslinked with the Ras hinge region
